Where a name gives a salt, the structure may show the parent alone.
Legend:
NPY induced food intake = assay: Food intake in satiated rats after NPY application to the PVN; type: in vivo, rat
Procedure: For these determinations food intake was measured in normal satiated rats after application of NPY to the paraventricular nucleus (PVN) in the presence or absence of the test compound. […] The rats were individually housed in stainless steel cages where water and food were available ad libitum.
Rats under Pentobarbital anaesthesia were stereotactically implanted with a stainless steel double guide cannula targeted bilaterally at the PVNs. Stereotactic coordinates were: -1.8mm caudal, 0.5mm lateral to bregma and 7.0 mm below the skull surface. Injection cannulae extended the guide cannulae by 1 mm. Animals were allowed to recover from surgery for at least 10 days before being used in the experiments. Rats were handled and mock-injected during the […] recovery period to habituate them to the injection procedure.
Animals treated with both test compounds and NPY were treated first with the test compound. Then, 15 min. after PVN infusion of the test compound or vehicle (control) 1 μg of NPY was administered by PVN infusion.
Food intake was measured by placing preweighed pellets into the cages at the time of NPY injection. Pellets were removed from the cage at 2 h post NPY injection. The food intake of animals treated with test compound was calculated as a percentage of the food intake of control animals, i.e., animals treated with vehicle.

human Y1 -receptor = target: T1, human Y1 -receptor (Homo sapiens, UniProt P25929); assay: Receptor binding to SK-N-MC cells ([125I]-Bolton-Hunter-NPY displacement); details: Table 1
T1 construct: endoge- nously expressing Y1 and Y2 receptors; endogenous in cells; host or cells: SK-N-MC (neuroblastoma) cells
T1 sequence (P25929 1-384): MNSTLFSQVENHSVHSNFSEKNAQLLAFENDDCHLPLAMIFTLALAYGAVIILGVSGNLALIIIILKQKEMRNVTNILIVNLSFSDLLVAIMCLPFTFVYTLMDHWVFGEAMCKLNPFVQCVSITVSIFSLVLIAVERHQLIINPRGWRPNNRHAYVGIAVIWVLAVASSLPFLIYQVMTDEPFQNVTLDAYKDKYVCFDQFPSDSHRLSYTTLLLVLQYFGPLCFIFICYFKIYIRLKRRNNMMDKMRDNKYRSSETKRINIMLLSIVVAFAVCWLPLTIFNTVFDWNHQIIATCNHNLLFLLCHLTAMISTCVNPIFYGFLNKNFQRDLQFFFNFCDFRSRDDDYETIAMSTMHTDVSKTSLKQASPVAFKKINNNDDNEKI
Procedure: Incubation is ended by centrifuging (10 minutes at 3000×gand […].). After washing once with PBS, the radioactivity of the pellet is measured in a gamma counter. […] The proportion of non-specific binding is defined as that radioactivity which is bound in the presence of 1 μM NPY. The IC50 values of the unlabelled test substances are determined graphically.

NPY [1] = assay: NPY-antagonism in vitro, isolated perfused rat kidney; details: NPY 1 μM bolus
Procedure: The abdomen is opened along the centre of the body and the left kidney is removed after the insertion of catheters in the renal artery, renal vein and ureter. The isolated kidney is immediately perfused with a modified Krebs-Ringer solution having the following composition (4 ml/minute):
The perfusion pressure is measured continuously using a pressure gauge. After a 60 minute stabilisation period the perfusion rate is adjusted so as to obtain a perfusion pressure of approximately 100 mm Hg. After a further 30 minutes the experiment is started and NPY (1μM) is administered as a bolus (0.1 ml) at 15 minute intervals until the pressure increase observed reaches a constant value. The compounds to be tested are given in the form of a continuous infusion over a period of 5 minutes and then NPY is injected. After a 30 minute wash-out period the next highest concentration of test substance is investigated. 3 to 5 different concentrations of the particular compound are tested on each occasion. Concentration/activity curves can be obtained by plotting the percentage inhibition of the NPY activity against the logarithm of the concentration (mol/1) of the compound.

NPY [2] = assay: In vivo NPY-antagonism, NPY-induced blood pressure effects in pithed rats; details: Rattus norvegicus, iv, 1 min, NPY 10 μg/kg i.v., diastolic blood pressure, read-out: pIC50 (in vivo NPY-antagonism) (converted)
Procedure: After intubation of the trachea the animals are pithed by introducing a blunt needle through the eye into the spinal bone marrow channel. The animals are ventilated with oxygen-rich ambient air using a respiratory pump (20 strokes/minute). A cannula is inserted in the left carotid artery and the arterial blood pressure is measured using a pressure gauge (Braun Melsungen Combitrans) connected to a recording device. For injection purposes a catheter is placed in the left jugular vein through which heparin is administered (200 IU/kg, i.v.). After the blood pressure has been stabilised, the animals are given 2 bolus injections of NPY (10 μg/kg, i.v.) at intervals of 15 minutes. The average increase in diastolic blood pressure is taken as the reference value (=100%). The test substances are injected in increasing doses (4 to 6 doses) at intervals of 15 minutes. One minute after administration of the test substance, NPY is administered.
The antagonistic effect of the test substances is determined by plotting the percentage inhibition of the NPY-induced blood pressure effects against the logarithm of the concentration of active substance.

Molecule	IC50 (human Y1 -receptor)	further results
N=C(N)NCCC[C@@H](NC(=O)C(c1ccc(O)cc1)c1ccc(O)cc1)C(=O)NCc1ccc(CNC(N)=O)cc1 [A]		% Inhibition of food intake (NPY induced food intake; 30 μg, PVN, 2 h, 1 μg NPY): 32%; Food intake following NPY application (NPY induced food intake; 30 μg, PVN, 2 h, 1 μg NPY): 2.40 g/animal
Neuropeptide Y [NPY, reference compound]		two hour food intake induced by NPY (NPY induced food intake; NPY 1 μg, versus 0.5 g with vehicle): 3.5 g
N=C(N)NCCC[C@@H](NC(=O)Cc1cc(Cl)c(N)c(Cl)c1)C(=O)NCc1ccc(CNC(N)=O)cc1 [R, (R)-N-[[4-(Aminocarbonylaminomethyl)phenyl]methyl]-N^2-[(4-amino-3,5-dichlorphenyl)acetyl]-argininamide-tri-fluoracetate]	4.5 nM	
CN(CCCC(NC(=O)C(c1ccccc1)c1ccccc1)C(=O)NCc1ccc(O)cc1)C(=N)N (racemic) [Compound E, (R,S)-N^5-(Aminoiminomethyl)-N^2-(diphenylacetyl)-N-[(4-hydroxyphenyl)methyl]-N^5-methyl-ornithinamide-hydrochloride]		pIC50 (NPY-antagonism in vitro) (NPY [1]): 8.41; ED50 (NPY [2]): 0.0135 µmol/kg
CCOC(=O)NCc1ccc(CNC(=O)[C@@H](CCCNC(=N)N)NC(=O)C(c2ccccc2)c2ccccc2)cc1 [Q, (R)-N^2-(Diphenylacetyl)-N-[[4-(ethoxycarbonylamino-methyl)phenyl]methyl]-argininamide-trifluoracetate]	4.25 nM	pIC50 (NPY-antagonism in vitro) (NPY [1]): 7.77; ED50 (NPY [2]): 0.162 µmol/kg
NC(=O)Cc1ccc(CNC(=O)[C@@H](CCCNc2ncc[nH]2)NC(=O)C(c2ccccc2)c2ccccc2)cc1 [S, (R)-N-[[4-(Aminocarbonylmethyl)phenyl]methyl]-N^2-(diphenylacetyl)-N^5-(1H-imidazol-2-yl)-ornithinamide-hydroiodide]	28.3 nM	

Second part, led by results:

IC50 (human Y1 -receptor)	Molecule	further results
2.2 nM	COC(=O)COc1ccc(C(C(=O)N[C@H](CCCNC(=N)N)C(=O)NCc2ccc(CNC(N)=O)cc2)c2ccc(O)cc2)cc1 (stereo partly drawn) [L]	
3.4 nM	COc1ccc2cc(C(=O)N[C@H](CCCNC(=N)N)C(=O)NCc3ccc(CNC(N)=O)cc3)ccc2c1 [N, (R)-N-[[4-(Aminocarbonylaminomethyl)phenyl]methyl]-N^2-(6-methoxy-2-naphthoyl)-argininamide-acetate]	
3 nM	N=C(N)NCCC[C@@H](NC(=O)C(c1ccccc1)c1ccccc1)C(=O)OCc1ccc(CNC(N)=O)cc1 [M, (R)-N^2-(Diphenylacetyl)-arginine-[4-(aminocarbonylamino-methyl)phenyl]methylester-trifluoracetate]	
1.8 nM	N=C(N)NCCC[C@@H](NC(=O)Nc1ccc(Cl)c(Cl)c1)C(=O)NCc1ccc(CNC(N)=O)cc1 [K]	
3.5 nM	CN(Cc1ccc(CNC(N)=O)cc1)C(=O)[C@@H](CCCNC(=N)N)NC(=O)C(c1ccccc1)c1ccccc1 [P, (R)-N-[[4-(Aminocarbonylaminomethyl)phenyl]methyl]-N^2-(diphenylacetyl)-N-methyl-argininamide-acetate]	
1.5 nM	CN(C)C(=O)NCc1ccc(CNC(=O)[C@@H](CCCNC(=N)N)NC(=O)C(c2ccccc2)c2ccccc2)cc1 [I, (R)-N-[[4-(Dimethylaminocarbonylaminomethyl)phenyl]methyl]-N^2-(diphenylacetyl)-argininamide-bis-(trifluor-acetate)]	
3.45 nM	N=C(N)NCCC[C@@H](NC(=O)CC(c1ccccc1)c1ccccc1)C(=O)NCc1ccc(CNC(N)=O)cc1 [O, (R)-N-[[4-(Aminocarbonylaminomethyl)phenyl]methyl]-N^2-(3,3-diphenyl-1-oxopropyl)-argininamide]	
1.1 nM	CCOC(=O)NC(=O)NCc1ccc(CNC(=O)[C@@H](CCCNC(=N)N)NC(=O)C(c2ccccc2)c2ccccc2)cc1 [H, (R)-N^2-(Diphenylacetyl)-N-[[4-(ethoxycarbonylamino-carbonylaminomethyl)phenyl]methyl]-argininamide-trifluor-acetate]	

Reference: patent publication US6114390A, “Amino acid derivatives, pharmaceutical compositions containing these compounds and processes for preparing them” (Karl Thomae GmbH, priority 1997, dated 2000)
